Measurements published in patent US20150031656A1, “COMBINATION THERAPY FOR TREATING ANDROGEN DEFICIENCY” (REPROS THERAPEUTICS INC., priority 2012, published 2015).
Several values for one entry are separate records, joined by “and”; a condition that tells them apart may be missing. Identical values can stand only once. Counter-ions that a name gives are not always drawn. Like-named read-outs stand apart in the source and are kept apart here.

Experiments:
triglycerides = test: Androxal vs Androgel in hypogonadal men: triglycerides; format: in vivo, human; settings: men on Androxal, non-dose dependent, after two weeks of therapy
Protocol: (§1) Half of the men in each of the Androxal™ and placebo arms were randomized into cohorts that underwent in-clinic sessions on days 1 and 14 to determine pharmacokinetic parameters for Androxal™ as well as cyclical changes in testosterone. The placebo and Androxal™ doses were administered in a double blind fashion. […] Following the two week drug exposure patients were followed for an additional seven to ten days to determine the status of their testosterone levels.

serum FSH = test: Androxal vs Androgel in hypogonadal men: serum FSH; format: in vivo, human; settings: two weeks treatment and follow-up
Protocol: as §1

[1] = Androxal vs Androgel in hypogonadal men: side effects; settings: two week exposure
Protocol: as §1

serum testosterone = test: Androxal vs Testim, 6 month spermatogenesis trial: serum testosterone; format: in vivo, human; settings: after 3 months of treatment, sustained for another 3 months
Protocol: (§2) The mean age of the subjects was 46 years and mean body weight was 233 pounds. […] Subjects were required to discontinue topical exogenous testosterone for at least 30 days prior to receiving study medication. Effects of the treatment on sperm parameters associated with fertility as well as on FSH and LH levels were evaluated following 3 and 6 months of therapy and one month after cessation of treatment. Semen analysis included semen volume, total sperm count, sperm concentration, percent motility and percent normal morphology. There were 6 laboratory visits including a screening (V1), baseline (V2) and post first dose visits at 1 month (V3), 3 months (V4) and 6 months (V5) as well as a one month post therapy follow-up visit (V6).

serum LH = test: Androxal vs Androgel in hypogonadal men: serum LH; format: in vivo, human
Protocol: as §1

testosterone = settings: for 24 hr T <300 ng/dl @ Week 6 / Any T >1100 ng/dl @ Week 6: number of men
Protocol: Sixty men with testosterone levels not exceeding 350 ng/dl were enrolled in the study and randomized to one of four parallel arms: (i) 6.25 mg Androxal (ii) 12.5 mg Androxal (iii) 25 mg Androxal or (iv) Androgel. The average age of men in the study was 53.1 (10.1) and their average body mass index (BMI) was 31.8 (6.1). The men were dosed for 6 weeks and then followed for an additional 7 days after cessation of treatment. Subjects in all arms visited the clinic every 2 weeks for assessments. Twenty-four hour assessments were made at baseline before dosing commenced and after 6 weeks of treatment, at which point testosterone and LH were assessed hourly.

[2] = Androxal vs Testim, three month trial: tolerability; format: in vivo, human; settings: both doses (12.5 and 25 mg), three months
Protocol: (§3) Over 900 men were screened to achieve a total of 108 men who met all criteria and were enrolled in the study. All 108 men enrolled in the study satisfied the requirement of at least one dose and one visit in which efficacy measures could be assessed. The subjects were randomized into four groups: (i) placebo; (ii) 12.5 mg Androxal; (iii) 25 mg Androxal; and (iv) Testim. There was no statistical difference among the groups in testosterone at baseline.

total testosterone = test: Placebo controlled study of Androxal vs Androgel in hypogonadal men: testosterone; format: in vivo, human; settings: for mean increase in testosterone from baseline: oral, two weeks
Protocol: as §1

[3] = Androxal vs Testim, 6 month spermatogenesis trial: tolerability; format: in vivo, human; settings: 6 months of drug therapy
Protocol: as §2

sperm counts = test: Androxal vs Testim, three month trial: sperm counts; format: in vivo, human
Protocol: as §3
Sperm counts were assessed at baseline and after dosing was completed. Spermatogenesis is approximately a 64 day cycle and detection of early changes after 3 months of treatment would be expected. At baseline, the median values of all four arms were above the generally accepted lower level of sperm counts for normal males (20 million sperm per ml). […] The median sperm count for the men in the combined Androxal arms was 93.8 million sperm/ml (p value=0.001 compared to Testim). […] No drug related serious adverse effects occurred that led to discontinuation.

[4] = system: serum dihydroxytestosterone (DHT); test: Androxal vs Androgel in hypogonadal men: DHT to total testosterone ratio; format: in vivo, human; settings: men on Androxal 50 mg; placebo group ratio 1.07
Protocol: as §1

LH and FSH = test: Androxal vs Testim, 6 month spermatogenesis trial: LH and FSH; format: in vivo, human; settings: secondary hypogonadal men, 3 and 6 months of therapy
Protocol: as §2

morning testosterone = test: Androxal vs Testim, three month placebo-controlled trial: morning testosterone; format: in vivo, human; settings: for Median Morning Testosterone, Baseline T: before dosing; for Median Morning Testosterone, Baseline T / Median Morning Testosterone, Final T: no unit in table; for Median Morning Testosterone, Final T: end of three month dosing
Protocol: as §3

serum cholesterol = settings: baboons, 1.5 mg/kg for 12 days
total serum testosterone = settings: for effect on total serum testosterone (in words): baboons; for effect on total serum testosterone (in words) / Serum Testosterone Levels, 12 days, group mean: 1.5 mg/kg for 12 days; for Serum Testosterone Levels, 6 days / Serum Testosterone Levels, 12 days / Serum Testosterone Levels, wash-out / Serum Testosterone Levels, baseline / Serum Testosterone Levels, 0 day: individual baboon; for Serum Testosterone Levels, 6 days / Serum Testosterone Levels, 6 days, group mean: 1.5 mg/kg daily, day 6; for Serum Testosterone Levels, 6 days / Serum Testosterone Levels, 12 days: 1.5 mg/kg; for Serum Testosterone Levels, 12 days: 1.5 mg/kg for 12 consecutive days; for Serum Testosterone Levels, 12 days / Serum Testosterone Levels, 12 days, group mean: day 12; for Serum Testosterone Levels, wash-out / Serum Testosterone Levels, wash-out, group mean: 7 days after the last treatment; for Serum Testosterone Levels, baseline: baseline Dec. 3, 2001, before treatment; for Serum Testosterone Levels, 0 day / Serum Testosterone Levels, 0 day, group mean: day 0, before first dose; for Serum Testosterone Levels, 6 days, group mean / Serum Testosterone Levels, 12 days, group mean / Serum Testosterone Levels, wash-out, group mean / Serum Testosterone Levels, baseline, group mean / Serum Testosterone Levels, 0 day, group mean: mean of 3 baboons; for Serum Testosterone Levels, baseline, group mean: before treatment
Description: (§4) The samples analyzed were sera taken on the day of first treatment before being given test article (day 0), after 12 days of treatment (day 12) and 7 days after the last treatment (end or wash-out).

serum prolactin (PRL) = test: Serum prolactin in male baboons; settings: 1.5 mg/kg for 12 days
Description: as §4

[5] = three month dosing, Androxal arms combined, Testim arm

SMILES: CCN(CC)CCOc1ccc(/C(=C(\Cl)c2ccccc2)c2ccccc2)cc1 [Androxal™, trans-clomiphene]
- reduction in triglycerides, average (triglycerides): 19.1%
- serum levels of FSH (serum FSH): boosts serum FSH which remains high during the follow-up period
- side effects different than placebo [1]: no side effects noted
- mean serum testosterone (serum testosterone): statistically significant rise
- serum LH in the follow-up period (serum LH; 7-10 days after cessation of treatment): remained high
- serum levels of LH during treatment (serum LH; hypogonadal men, two weeks treatment): statistically significant increase
- 24 hr T <300 ng/dl @ Week 6 (testosterone; Androxal 6.25 mg): 4 out of 12
- Any T >1100 ng/dl @ Week 6 (testosterone; Androxal 6.25 mg): 0 out of 12
- 24 hr T <300 ng/dl @ Week 6 (testosterone; Androxal 12.5 mg): 2 out of 10
- Any T >1100 ng/dl @ Week 6 (testosterone; Androxal 12.5 mg): 0 out of 10
- 24 hr T <300 ng/dl @ Week 6 (testosterone; Androxal 25 mg): 0 out of 13
- Any T >1100 ng/dl @ Week 6 (testosterone; Androxal 25 mg): 0 out of 13
- morning testosterone after the seven day follow-up (in words) (testosterone; all Androxal arms (6.25, 12.5, 25 mg)): improved morning testosterone compared to baseline
- tolerability compared to placebo [2]: generally well tolerated
- serum total testosterone in the follow-up period (total testosterone; 7-10 days after cessation of daily oral treatment): unexpectedly remained high
- mean total testosterone (total testosterone; hypogonadal men, Androxal 50 mg, after 15 days): 589 ± 172 ng/dL
- mean increase in testosterone from baseline (total testosterone; hypogonadal men, Androxal high dose (50 mg)): 294 ng/dL
- mean increase in testosterone from baseline (total testosterone; hypogonadal men, Androxal low dose (12.5 mg)): 169 ng/dL
- mean increase in testosterone from baseline (total testosterone; hypogonadal men, Androxal mid dose (25 mg)): 247 ng/dL
- tolerability [3]: well tolerated by all subjects
- change in sperm counts from baseline (in words) (sperm counts; end of the three month dosing period): no statistically significant changes
- median sperm count (sperm counts; end of three month dosing, Androxal arms combined, Testim arm): 93.8 million sperm/ml
- DHT/TT ratio [4]: 0.83
- LH and FSH levels (LH and FSH): significantly increased both LH and FSH
- Median Morning Testosterone, Baseline T (morning testosterone; Androxal 12.5 mg (n = 26), text uses ng/dl): 202
- Median Morning Testosterone, Final T (morning testosterone; Androxal 12.5 mg (n = 26)): 432
- Median Morning Testosterone, Baseline T (morning testosterone; Androxal 25 mg (n = 30)): 202
- Median Morning Testosterone, Final T (morning testosterone; Androxal 25 mg (n = 30)): 416
- men exceeding the normal maximum level of testosterone (1100 ng/dl) (morning testosterone; [5]): no men
- men in the normal range for morning testosterone levels (300-1100 ng/dl) (morning testosterone; [5]): 69.9%

SMILES: CCN(CC)CCOc1ccc(C(=C(Cl)c2ccccc2)c2ccccc2)cc1 [Clomid, clomiphene citrate]
- effect on serum cholesterol levels (in words) (serum cholesterol): slight increase
- ALT/SGPT (in vivo): out of range low at the end of the study
- BUN and BUN/creatinine (in vivo): altered during the study
- serum carbon dioxide (in vivo): higher than reference values
- serum glucose (in vivo, 1.5 mg/kg): within the normal range
- effect on total serum testosterone (in words) (total serum testosterone): more variable total testosterone levels on day 6 and later
- Serum Testosterone Levels, 6 days (total serum testosterone; listed as CLO): 940.97 ng/dL and 585.92 ng/dL and 151.12 ng/dL
- Serum Testosterone Levels, 12 days (total serum testosterone; listed as CLO): 891.5 ng/dL and 555.6 ng/dL and 318.9 ng/dL
- Serum Testosterone Levels, wash-out (total serum testosterone; listed as CLO): 150.9 ng/dL and 316.3 ng/dL and 143.6 ng/dL
- Serum Testosterone Levels, baseline (total serum testosterone; listed as CLO): 79.01 ng/dL and 97.55 ng/dL and 158.06 ng/dL
- Serum Testosterone Levels, 0 day (total serum testosterone; listed as CLO): 76.15 ng/dL and 305.24 ng/dL and 102.94 ng/dL
- Serum Testosterone Levels, 6 days, group mean (total serum testosterone): 559.3 ng/dL
- Serum Testosterone Levels, 12 days, group mean (total serum testosterone): 588.7 ng/dL
- Serum Testosterone Levels, wash-out, group mean (total serum testosterone): 203.6 ng/dL
- Serum Testosterone Levels, baseline, group mean (total serum testosterone): 111.5 ng/dL
- Serum Testosterone Levels, 0 day, group mean (total serum testosterone): 161.4 ng/dL

SMILES: CCN(CC)CCOc1ccc(/C(=C(/Cl)c2ccccc2)c2ccccc2)cc1 [Enclomid, trans-Clomid]
- decrease in serum cholesterol levels (serum cholesterol): 8%
- ALT/SGPT (in vivo): within the normal range
- BUN and BUN/creatinine (in vivo): altered during the study
- per cent of granulocytes in the blood (in vivo): lowering the per cent of granulocytes in the blood
- platelet count (in vivo): pushed the platelet count to its normal male level
- serum alkaline phosphatase (ALP) (in vivo): decreased in value
- serum anion gap (in vivo): raised this parameter towards normal values
- lymphocyte count and per cent lymphocytes (in vivo, 1.5 mg/kg): Both the count and per cent lymphocytes in the population increase
- red blood cell population (in vivo, 1.5 mg/kg): substantive effects on the red blood cell population
- serum glucose (in vivo, 1.5 mg/kg): no increases with treatment
- serum prolactin (PRL) during the study (serum prolactin (PRL)): decrease in serum prolactin (PRL)
- effect on total serum testosterone (in words) (total serum testosterone): significantly and statistically raised total serum testosterone on days 6 and 12
- Serum Testosterone Levels, 6 days (total serum testosterone): 1223.8 ng/dL and 1128.2 ng/dL and 1081.1 ng/dL
- Serum Testosterone Levels, 12 days (total serum testosterone): 633.6 ng/dL and 1466 ng/dL and 1166 ng/dL
- Serum Testosterone Levels, wash-out (total serum testosterone): 307.2 ng/dL and 399.2 ng/dL and 271 ng/dL
- Serum Testosterone Levels, baseline (total serum testosterone): 64.57 ng/dL and 166.86 ng/dL and 170.45 ng/dL
- Serum Testosterone Levels, 0 day (total serum testosterone): 74.96 ng/dL and 133.59 ng/dL and 106.47 ng/dL
- Serum Testosterone Levels, 6 days, group mean (total serum testosterone): 1144.4 ng/dL
- Serum Testosterone Levels, 12 days, group mean (total serum testosterone): 1088.5 ng/dL
- Serum Testosterone Levels, wash-out, group mean (total serum testosterone): 325.8 ng/dL
- Serum Testosterone Levels, baseline, group mean (total serum testosterone): 134.0 ng/dL
- Serum Testosterone Levels, 0 day, group mean (total serum testosterone): 105.0 ng/dL

SMILES: CCN(CC)CCOc1ccc(/C(=C(\Cl)c2ccccc2)c2ccccc2)cc1 [Zuclomid, cis-Clomid]
- increase in serum cholesterol levels (serum cholesterol): 22%
- hematocrit (baboons, 1.5 mg/kg for 12 days): demonstrated a statistical difference
- red blood cell population (baboons, 1.5 mg/kg for 12 days): substantive effects on the red blood cell population
- serum glucose (baboons, 1.5 mg/kg for 12 days): within the normal range
- serum carbon dioxide (baboons, day 12): higher than reference values
- serum alkaline phosphatase (ALP) (baboons, following treatment): not elevated
- ALT/SGPT (baboons, over the treatment period / end of the study): within the normal range
- effect on total serum testosterone (in words) (total serum testosterone): did not raise total serum testosterone to any extent
- Serum Testosterone Levels, 6 days (total serum testosterone): 137.51 ng/dL and 169.98 ng/dL and 227.95 ng/dL
- Serum Testosterone Levels, 12 days (total serum testosterone): 314.5 ng/dL and 406.1 ng/dL and 353.0 ng/dL
- Serum Testosterone Levels, wash-out (total serum testosterone): 359.7 ng/dL and 860.5 ng/dL and 274.1 ng/dL
- Serum Testosterone Levels, baseline (total serum testosterone): 124.84 ng/dL and 104.66 ng/dL and 282.29 ng/dL
- Serum Testosterone Levels, 0 day (total serum testosterone): 210.4 ng/dL and 67.37 ng/dL and 904.82 ng/dL
- Serum Testosterone Levels, 6 days, group mean (total serum testosterone): 178.5 ng/dL
- Serum Testosterone Levels, 12 days, group mean (total serum testosterone): 357.9 ng/dL
- Serum Testosterone Levels, wash-out, group mean (total serum testosterone): 498.1 ng/dL
- Serum Testosterone Levels, baseline, group mean (total serum testosterone): 170.6 ng/dL
- Serum Testosterone Levels, 0 day, group mean (total serum testosterone): 394.2 ng/dL
